Converted amounts (≈) assume the structure as drawn. “Also recorded” adds a separate entry of the source. Where two headings read alike, the source gives them in different places.
Experiments:
[1] = Solubility of the compound in aqueous solutions and in 50% methanol-water at various pH; assay type: physicochemical
Text: On the other hand, if the drug is exposed to the relatively alkaline portions of the intestinal tract, i.e., a pH greater than 7.5, the drug remains undissolved and is unavailable for absorption in humans.

[2] = Acid hydrolysis / half-life of the compound at various pH and temperature; assay type: physicochemical; conditions: for half-life: 50% methanol-water
Text: However, paradoxically, under the acidic conditions of maximum dissolution and absorption, the drug substance is itself the most labile from a chemical point of view. As previously indicated, the compound belongs to a class of enamines that are readily hydrolyzed under acidic aqueous conditions.

[3] = Anti-psychotic properties and liabilities (general statement)
[4] = Absorption into the bloodstream (general statement); conditions: uncoated drug; degradation at low pH in the stomach

CN1CCN(C2=Cc3cc(Cl)ccc3Oc3ccccc32)CC1 [1-(2-Chlorodibenzo[b,f]oxepin-10-yl)-4-methylpiperazine]
solubility ([1]; 50% methanol-water system, pH 8.0): totally insoluble | solubility ([1]; aqueous solution, pH 1.0, read-out: solubility): 20000 µg/mL (≈ 61.2 mM) | solubility ([1]; aqueous solution, pH 3.0, read-out: solubility): 15000 µg/mL (≈ 45.9 mM) | solubility ([1]; aqueous solution, pH 4.3, read-out: solubility): 4000 µg/mL (≈ 12.2 mM) | solubility ([1]; aqueous solutions, pH greater than 7.5): insoluble | solubility ([1]; organic solvent or mixture, 50% methanol-water system, pH 7.0, read-out: solubility): 2000 µg/mL (≈ 6.12 mM) | half-life ([2]; pH 1.5, 25° C., pH 1.5, 50% (v/v) methanol-water): 0.12 h | half-life ([2]; pH 1.5, 37° C., pH 1.5): 0.12 h | half-life ([2]; pH 6, 25° C., pH 6.0, 50% (v/v) methanol-water): 269 h | half-life ([2]; pH 6, 37° C., pH 6.0): 159 h | acid lability ([2]; aqueous conditions): high degree of acid lability | anti-psychotic properties [3]: potent anti-psychotic properties; also recorded: particularly useful antipsychotic properties | cardiovascular liabilities [3]: minimal | extrapyramidal liabilities [3]: minimal | absorption into the bloodstream [4]: poor and erratic absorption

From patent US4180559A, “Coated 1-(2-chlorodibenzo[b,f]oxepin-10-yl)-4-methylpiperazine compositions” (Richardson-Merrell Inc., priority 1978, dated 1979)
